The structures appear in SMILES notation. pIC50: −log10 of the molar value. Where only a bound is given, the exact number is not on record here.

Consider 11 compounds from patent US11267802B2 (BEBETTER MED INC., priority 2015, dated 2022).

In one data set the test system is H358. Briefly: Inhibition assay on tumor cell proliferation (CellTiter-Glo), H358. The data set is classed as cell-based, Human. The following applies: Homo sapiens, NCI-H358; H358 (wild-type EGFR), 72 hours, 10% bovine serum. A digest of the protocol:
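Viability from ATP content by CellTiter-Glo luminescence; inhibition normalised to DMSO (max) and medium-only (min) wells, IC50 by sigmoidal dose-response fitting. LOVO and H358 carry wild-type EGFR; HCC827 has exon 19 deletion.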

The subject of the next data set is H1975. Briefly: Inhibition assay on tumor cell proliferation (CellTiter-Glo), H1975. It counts as cell-based, Human. The settings on record: Homo sapiens, NCI-H1975; H1975 (L858R and T790M EGFR double mutation), 72 hours, 10% bovine serum. On the technique in general: ATP-based viability assays read luminescence as a measure of living cells.
For another data set, the system named is H1975 xenograft tumor. Briefly: Potency assay of tumor model, 16 consecutive days. The data set is classed as in vivo, Balb/C nude mice. The following applies: oral, 30 mg/kg qd, 16 days. On the procedure: Balb/C nude mice were purchased from Beijing Vital River Laboratory Animal Technology Co., Ltd., and housed in SPF animal room. The human non-small-cell lung cancer cell line H1975 in a culture dish was collected by trypsin-EDTA (0.25% trypsin, 1 mM EDTA), and then washed with a serum-free PBS solution. Lastly, the cells were implanted after diluted in a serum-free medium. Only the single cell suspension with a survival rate over 90% (Trypan blue rejection) can be used for injection. 5 million cells suspended in a 0.1 ml serum-free culture were injected into the front right flanking subcutaneous region of each mouse by using a 1 ml syringe and a 25G syringe needle, and the blood vessel was carefully avoided. The tumor size was measured in about one week after implantation. A caliper rule was used to measure the tumor size. The tumor volume was calculated by the following formula: tumor volume=(length×width^2)/2.
This experiment studied the inhibition of tumor growth in H1975 xenograft tumor model by the compounds 20, 50, 91, and 118. When the mean volume of H1975 tumor reached about 260 mm^3, the animals were divided into 5 oral administration groups, that is, excipient control group and groups of oral administration of compound 20, compound 50, compound 91, and compound 118, respectively (n=8/group). These compounds were dissolved in 30% sulfobutylated beta-cyclodextrin (SBE-β-CD) and 1N HCl (pH 3-4). […]

For another data set, the target named is T1, EGFR T790M/L858R (Homo sapiens, UniProt P00533, L858R/T790M).
T1 construct: purchased Invitrogen PR8911A
The experiment in a line: Mutant EGFR T790M/L858R activity inhibition assay (Caliper mobility shift). It counts as biochemical. The following applies: read-out: enzyme activity inhibition (IC50) EGFR T790M/L858R. The method, boiled down:
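Compound added in 10% DMSO at 5-fold final concentration; substrate conversion read by Caliper mobility shift. Inhibition = (max−conversion)/(max−min)×100, with max from DMSO no-compound wells and min from no-enzyme wells; IC50 from fitted concentration–response curve.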

Data set [1] in a line: Pharmacokinetics in rats after oral administration. The data set is classed as in vivo, SD rats. How it is done: Male SD rats weighing 250-300 g, or male beagles weighing 9-10 kg, were fasted overnight before the experiment. The object compounds were dissolved in 30% sulfobutylated beta-cyclodextrin (SBE-β-CD), and orally administrated to the rats at a dose of 20 mg/kg or to the beagles at a dose of 5 mg/kg. Blood samples were taken at 15 minutes, 30 minutes, 1 hour, 2 hours, 3 hours, 4 hours, 6 hours, 8 hours and 24 hours after administration. 0.3 ml of blood was collected at every time point, placed in a centrifuge tube containing K2-EDTA (ethylenediamine tetraacetic acid dipotassium) and centrifuged (2,000 g, 10 minutes, 4° C.) to collect plasma, which was then stored in an ultra cold storage freezer at −80° C. 50 μL of plasma sample was mixed with 5 μL of internal standard (IS), and then extracted with ethyl acetate. After vacuum drying, the residue was re-dissolved in acetonitrile. The sample was filtered and injected into LC-MS/MS for analysis.

The next data set relates to LOVO. Briefly: Inhibition assay on tumor cell proliferation (CellTiter-Glo), LOVO. The following applies: Homo sapiens; LOVO (wild-type EGFR), 72 hours, 10% bovine serum. It counts as cell-based, Human. On the procedure:
By using a CellTiter-Glo luminescence cell viability test kit (Promega, # G7572), the content of adenosine triphosphate (ATP) was determined to assess the cell viability.
Human colon cancer cell line LOVO and human non-small-cell lung cancer H358 express wild-type EGFR. Human non-small-cell lung cancer cell line HCC827 carries deletion mutation in exon 19 (ex19del). Those cell lines are purchased from Shanghai Fudan IBS Cell Resource Center and American Tissue Culture Collection (ATCC).
The assay procedure is as follows. The cells in a cell culture plate were digested with a pancreatic enzyme, re-suspended in a DPBS culture medium, and had the cell density counted by Scepter automated cytometer (Millipore # PHCC00000). The cells were diluted to a solution of 44,000 cells per ml. The cell solution with adjusted density was added to the cell assay plate at 90 microliters per well. The plate was placed in an incubator with 5% CO2 at 37° C. for 24 hours of incubation, and then added with different concentrations of subject compounds. The cells were incubated for 72 hours with the compounds in presence of 10% bovine serum. The content of ATP was determined by a CellTiter-Glo® Luminescent Cell Viability Assay kit (see the manufacturer's instruction for details) to evaluate cell-growth inhibition.
Briefly, 30 μl of CellTiter-Glo® reagent was added to each well, and then shaken for 10 minutes to induce cell lysis. The fluorescent signal was detected and recorded by Fluoroskan Ascent FL (Thermo). The max signal value was obtained from the cells treated by dimethyl sulfoxide for 72 hours. The min signal value was obtained from the medium alone (the number of the cells was 0). Inhibitory rate %=(max signal value−compound signal value)/(max signal value−min signal value)×100. The data was processed by GraphPad Prism V5.0 software (GraphPad Software, San Diego, Calif.). Sigmoidal dose-response curve fitting was performed to calculate the IC50 value.

Setting [2] is: male, SD, rat, 20 mg/kg, plasma.

T1 sequence (P00533 25-1210 T790M/L858R): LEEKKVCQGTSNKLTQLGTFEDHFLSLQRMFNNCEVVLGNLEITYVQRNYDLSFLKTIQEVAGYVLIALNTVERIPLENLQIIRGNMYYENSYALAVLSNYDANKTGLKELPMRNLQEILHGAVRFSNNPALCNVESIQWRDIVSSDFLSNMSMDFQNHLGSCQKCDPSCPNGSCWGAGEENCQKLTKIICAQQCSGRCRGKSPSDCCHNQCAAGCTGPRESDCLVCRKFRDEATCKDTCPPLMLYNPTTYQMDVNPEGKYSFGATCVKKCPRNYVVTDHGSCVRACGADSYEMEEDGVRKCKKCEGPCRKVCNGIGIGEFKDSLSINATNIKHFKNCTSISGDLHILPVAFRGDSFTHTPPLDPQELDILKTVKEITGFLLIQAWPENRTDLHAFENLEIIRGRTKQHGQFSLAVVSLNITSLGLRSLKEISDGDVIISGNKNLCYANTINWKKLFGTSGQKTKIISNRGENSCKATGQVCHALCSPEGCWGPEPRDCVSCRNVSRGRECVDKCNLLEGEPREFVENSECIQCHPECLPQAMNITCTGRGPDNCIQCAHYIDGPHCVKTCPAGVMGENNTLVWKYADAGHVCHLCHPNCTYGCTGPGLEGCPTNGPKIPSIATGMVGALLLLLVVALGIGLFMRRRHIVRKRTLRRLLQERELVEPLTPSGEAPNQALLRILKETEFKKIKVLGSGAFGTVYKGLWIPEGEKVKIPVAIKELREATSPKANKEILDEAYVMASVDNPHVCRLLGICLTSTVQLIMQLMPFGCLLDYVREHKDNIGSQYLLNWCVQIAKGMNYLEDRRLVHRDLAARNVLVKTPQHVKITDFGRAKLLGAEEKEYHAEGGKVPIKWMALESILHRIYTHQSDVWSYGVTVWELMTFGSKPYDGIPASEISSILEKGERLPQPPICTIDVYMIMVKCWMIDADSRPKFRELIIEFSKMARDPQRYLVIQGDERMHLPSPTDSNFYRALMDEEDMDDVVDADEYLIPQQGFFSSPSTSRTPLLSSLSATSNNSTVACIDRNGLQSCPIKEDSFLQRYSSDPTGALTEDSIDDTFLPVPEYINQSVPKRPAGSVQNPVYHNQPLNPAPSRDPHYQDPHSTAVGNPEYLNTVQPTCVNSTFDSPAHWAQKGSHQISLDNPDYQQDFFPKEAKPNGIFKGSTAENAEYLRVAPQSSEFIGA

In turn, `C=CC(=O)Nc1cc(Nc2nccc(-n3c(=O)n(C)c4ccccc43)n2)c(C)cc1N(C)CCN(C)C` [Compound 118, N-(2-((2-(dimethylamino)ethyl) (methyl)amino)-4-methyl-5-((4-(3-methyl-2-oxo-2,3-dihydro-1H-benzo[d]imidazol-1-yl)pyrimidin-2-yl)amino)phenyl)acrylamide] came in with a melting point of 208 to 210 °C. Also, in the data set with H358, the pIC50 is 6.00 to 7.00. In the data set with H1975, this compound showed a pIC50 above 8.00. Moreover, the “inhibition of growth of H1975 xenograft tumor (in words)” value with H1975 xenograft tumor is “tumor regression”. At EGFR T790M/L858R, the pIC50 was above 9.00.
In the data set with H358, `C=CC(=O)Nc1cc(Nc2nccc(-n3ccc4nc(OC)ccc43)n2)c(OC)cc1N(C)CCN(C)C` [Compound 20, N-(2-((2-(dimethylamino)ethyl)(methyl)amino)-4-methoxy-5-((4-(5-methoxy-1H-pyrrolo[3,2-b]pyridin-1-yl)pyrimidin-2-yl)amino)phenyl)acrylamide] had a pIC50 of 6.00 to 7.00. In the data set with H1975, this compound had a pIC50 above 8.00. In addition, the “absorption / blood exposure after oral administration (in words)” value in data set [1] is recorded as “well absorbed, with high blood exposure”. Further, in data set [1] (setting [2]), the AUC(0-inf) was 1450 ng·h/mL, the peak level (Cmax) was 350 ng/mL, the Tmax amounted to 1.67 h and the half-life is 3.7 h. Further, in data set [1] (male, SD, rat, 20 mg/kg, plasma, read-out: AUC0-24), the AUC(0-t) worked out at 1440 ng·h/mL. In addition, in the data set with H1975 xenograft tumor, the “inhibition of growth of H1975 xenograft tumor (in words)” value is given as “tumor regression”. The pIC50 on EGFR T790M/L858R is above 9.00.
For the compound `C=CC(=O)Nc1cc(Nc2nccc(-n3ccc4ccccc43)n2)c(OC)cc1N(C)CCN1CCCC1` [Compound 80, N-(5-(4-(1H-indol-1-yl)pyrimidin-2-ylamino)-4-methoxy-2-(methyl(2-(pyrrolidin-1-yl)ethyl)amino)phenyl)acrylamide], the melting point was in the range of 151 to 153 °C. Besides, the pIC50 with LOVO is below 6.00. This compound gave a pIC50 with H358 below 6.00. The compound further gave a pIC50 in the data set on H1975 above 8.00. The pIC50 at EGFR T790M/L858R was 8.00 to 9.00.
Take `C=CC(=O)Nc1cc(Nc2ncc(C(F)(F)F)c(-n3ccc4ccccc43)n2)c(OC)cc1N(C)CCN(C)C` [Compound 5, N-(5-((4-(1H-indol-1-yl)-5-(trifluoromethyl)pyrimidin-2-yl)amino)-2-((2-(dimethylamino)ethyl)(methyl)amino)-4-methoxyphenyl)acrylamide]: the melting point lay in the range of 161 to 162 °C. This compound also gave a pIC50 with LOVO below 6.00. Further, the pIC50 in the data set with H358 is 6.00 to 7.00. For the same compound, the pIC50 in the data set with H1975 is above 8.00. On EGFR T790M/L858R, the pIC50 is 8.00 to 9.00.
The compound `C=CC(=O)Nc1cc(Nc2nccc(-n3ccc4cc(OC)ccc43)n2)c(OC)cc1N(C)CCN(C)C` [Compound 27, N-(2-((2-(dimethylamino)ethyl)(methyl)amino)-4-methoxy-5-((4-(5-methoxy-1H-indol-1-yl)pyrimidin-2-yl)amino)phenyl)acrylamide] registered a melting point of 117 to 118 °C. The pIC50 in the data set on LOVO is below 6.00. In the data set on H358, this compound gave a pIC50 of 6.00 to 7.00. Also, the pIC50 in the data set with H1975 was above 8.00. Besides, the pIC50 on EGFR T790M/L858R was above 9.00.
`C=CC(=O)Nc1cc(Nc2ncc(N(C)C)c(-n3ccc4ccccc43)n2)c(OC)cc1N(C)CCN(C)C` [Compound 10, N-(5-(5-(dimethylamino)-4-(1H-indol-1-yl)pyrimidin-2-ylamino)-2-((2-(dimethylamino)ethyl)(methyl)amino)-4-methoxyphenyl)acrylamide] yielded a melting point of 154 to 155 °C. For the same compound, the pIC50 in the data set on LOVO is below 6.00. Also, in the data set with H358, the pIC50 is 6.00 to 7.00. This compound also had a pIC50 in the data set on H1975 above 8.00. In addition, the pIC50 at EGFR T790M/L858R was 8.00 to 9.00.
`C=CC(=O)Nc1cc(Nc2ncc(OC)c(-n3c(=O)n(C)c4ccccc43)n2)c(OC)cc1N(C)CCN(C)C` [Compound 57, N-(2-((2-(dimethylamino)ethyl) (methyl)amino)-4-methoxy-5-((5-methoxy-4-(3-methyl-2-oxo-2,3-dihydro-1H-benzo[d]imidazol-1-yl)pyrimidin-2-yl)amino)phenyl)acrylamide] returned a melting point of 168 to 172 °C. In the data set with LOVO, this compound gave a pIC50 below 6.00. This compound had a pIC50 in the data set with H358 below 6.00. In addition, the pIC50 with H1975 is 7.30 to 8.00. Also, on EGFR T790M/L858R, the pIC50 is 8.00 to 9.00.
`C=CC(=O)Nc1cc(Nc2ncc(OC)c(-n3ccc4ccccc43)n2)c(OC)cc1N(C)CCN(C)C` [Compound 6, N-(5-((4-(1H-indol-1-yl)-5-methoxypyrimidin-2-yl)amino)-2-((2-(dimethylamino)ethyl)(methyl)amino)-4-methoxyphenyl)acrylamide]: the melting point was 143.3 to 147.8 °C. Moreover, the pIC50 in the data set on LOVO is below 6.00. The pIC50 in the data set with H358 is below 6.00. In the data set on H1975, the pIC50 is above 8.00. Moreover, on EGFR T790M/L858R, the pIC50 was 8.00 to 9.00.
Consider `C=CC(=O)Nc1cc(Nc2nccc(-n3ccc4cc(C#N)ccc43)n2)c(OC)cc1N(C)CCN(C)C` [Compound 33, N-(5-((4-(5-cyano-1H-indol-1-yl)pyrimidin-2-yl)amino)-2-((2-(dimethylamino)ethyl)(methyl)amino)-4-methoxyphenyl)acrylamide], for which the melting point is 127 to 128 °C. Besides, the pIC50 with LOVO was below 6.00. Moreover, in the data set with H358, the pIC50 is 6.00 to 7.00. In the data set on H1975, this compound showed a pIC50 above 8.00. Also, the pIC50 at EGFR T790M/L858R is above 9.00.
With `C=CC(=O)Nc1cc(Nc2nccc(-n3c(=O)n(C)c4cc(C#N)ccc43)n2)c(OC)cc1N(C)CCN(C)C` [Compound 52, N-(5-((4-(5-cyano-3-methyl-2-oxo-2,3-dihydro-1H-benzo[d]imidazol-1-yl)pyrimidin-2-yl)amino)-2-((2-(dimethylamino)ethyl)(methyl)amino)-4-methoxyphenyl)acrylamide], the melting point fell in the range of 183 to 185 °C. This compound also gave a pIC50 in the data set on LOVO below 6.00. The compound also showed a pIC50 in the data set on H358 of 6.00 to 7.00. The compound also gave a pIC50 in the data set with H1975 above 8.00. In addition, the pIC50 on EGFR T790M/L858R is above 9.00.
Regarding `C=CC(=O)Nc1cc(Nc2nccc(-n3c(=O)n(C)c4cc(Cl)ccc43)n2)c(OC)cc1N(C)CCN(C)C` [Compound 51, N-(5-(4-(5-chloro-3-methyl-2-oxo-2,3-dihydro-1H-benzo[d]imidazol-1-yl)pyrimidin-2-ylamino)-2-((2-(dimethylamino)ethyl)(methyl)amino)-4-methoxyphenyl)acrylamide], the melting point was in the range of 70 to 71 °C. This compound also gave a pIC50 in the data set on LOVO below 6.00. Further, the pIC50 with H358 was 6.00 to 7.00. Further, in the data set with H1975, the pIC50 was above 8.00. The pIC50 at EGFR T790M/L858R was above 9.00.

The melting point is the temperature, or range, at which the solid turns liquid. One may read the AUC(0-inf) as the area under the concentration-time curve extrapolated to infinity. The low end stands for less exposure, the high end for more exposure. As usually defined, the Cmax is the maximum level reached in the sampled fluid or tissue. Usually Tmax stands for the time at which the peak concentration occurs. As usually defined, the half-life is how long it takes for the measured level to halve. Read a high half-life as slow decline.
